Assay results taken from patent US20200354348A1, “SEMISYNTHETIC AURONES AND METHODS OF USE THEREOF” (University of Kentucky Research Foundation, priority 2018, published 2020).

Legend:
Format in all cases: cell-based
Molt-16 = assay: IC50 in leukemia cell lines; settings: Homo sapiens; Molt-16, T-ALL
OVCAR-5 = assay: NCI60 screening; settings: Homo sapiens, Ovarian Cancer
HEK193T cells = assay: In vivo microtubule assembly assay in cells
Description: In vivo microtubule assembly assay. The amount of insoluble polymerized microtubules and soluble tubulin dimers in cells after exposure to compounds were detected following the method by Blagosklommy et al. (Cancer research 55, 4623-4626 (1995). Cells were seeded in 6-well plate at 50% confluency and cultured overnight. DMSO or compounds were added and the cells were incubated for additional 6 hours. The medium was removed and cells were washed with PBS three times followed by addition of lysis buffer [20 mM Tris-HCl (pH 6.8), 1 mM MgCl2, 2 mM EGTA, 20 μg/mL aprotinin, 20 μg/mL leupeptin, 1 mM PMSF, 1 mM orthovanadate, and 0.5% NP40]. The lysates were centrifuged at 12000 g for 10 min to obtain supernatants and pellets, where were mixed with loading buffer and boiled. Then standard western blot analysis against β-tubulin was performed as described by our previous work. (ACS Chem Biol 8, 796-803, doi:10.1021/cb3005353 (2013)).

A498 = assay: NCI60 screening; settings: Homo sapiens, Renal Cancer
[1] = system: PC-3, LS174T, A549, MCF-7, Ovcar-8 and NCI/ADR-RES; assay: Inhibition of various cancer cell lines, five-day treatment (FIG. 2A); settings: 120 h
Description: The inhibitory effects of aurones 4a and 4r were determined on various cancer cell lines including prostate cancer PC-3, colorectal cancer LS174T, lung cancer A549, breast cancer MCF-7, and ovarian cancer Ovcar-8 and NCI/ADR-RES (Tables 1-3, FIG. 2A).
(§1) Cell Culture. LS174T (colon cancer cells), PC-3 (prostate cancer cells), MCF-7 (beast) and A549 (lung) were cultured in the medium recommended by American Type Culture Collection at 37° C. with 5% CO2 atmosphere in a water jacketed incubator. Ovcar-8 and NCI/ADR-RES are gifts from Dr. Markos Leggas. Alpha-tubulin antibodies, TRITC-conjugated anti-rabbit antibody.
Proliferation inhibition assay. Cancer cells were seeded into 24-well plates at a density of 20,000 cells per well in 1 mL of culture medium and cultured overnight at 37° C. Compounds and the vehicle control DMSO were added to the cells. […] Then the cells resuspended in pbs were counted by Vi-CELL XR 2.03 (Beckman Coulter, Inc. USA). The ratio R of the number of viable cells in the compound treatment group to the number of viable cells in DMSO treatment group was taken as relative growth, and the percentage growth inhibition was calculated as: (1−R)*100. For initial testing, compounds were added to the cells at a final concentration 10 μM. Active compounds at 10 μM would be tested at lower concentrations.

NCI-H322M = assay: NCI60 screening; settings: Homo sapiens, Non-Small Cell Lung Cancer
Jurkat = assay: IC50 in leukemia cell lines; settings: Homo sapiens, T-ALL
PC-3 cells [2] = assay: Proliferation inhibition assay, PC-3; settings: Homo sapiens, PC-3, Table 2
Description: as §1
(§2) Proliferation inhibition assay. Cancer cells were seeded into 24-well plates at a density of 20,000 cells per well in 1 mL of culture medium and cultured overnight at 37° C. Compounds and the vehicle control DMSO were added to the cells. After 6 days, medium was removed and 100 μL of trypsin was added. Then the cells resuspended in pbs were counted by Vi-CELL XR 2.03 (Beckman Coulter, Inc. USA). The ratio R of the number of viable cells in the compound treatment group to the number of viable cells in DMSO treatment group was taken as relative growth, and the percentage growth inhibition was calculated as: (1−R)*100. For initial testing, compounds were added to the cells at a final concentration 10 μM. Active compounds at 10 μM would be tested at lower concentrations.

[3] = system: LS174T colon and PC3 prostate cancer cells; assay: Combination with CDK inhibitor R03306, proliferation
UACC-257 = assay: NCI60 screening; settings: Homo sapiens, Melanoma
DND41 = assay: IC50 in leukemia cell lines; settings: DND41, T-ALL
HCC-2998 = assay: NCI60 screening; settings: Homo sapiens, Colon Cancer
LS174T cells = assay: Proliferation inhibition assay, LS174T; settings: Homo sapiens, LS174T, Table 2
Description: as §1, §2

PC-3 cells [4] = assay: Immunofluorescence imaging of tubulin networks; settings: α-tubulin immunofluorescence
Description: Tubulin networks were examined by confocal immunofluorescence imaging. Briefly, PC3 cells were placed at a density of 80,000/mL to 24-well plates equipped with round microscope glass cover slides. After culturing at 37° C. for 24 hours, DMSO or compounds were added to the cells and incubated for additional 6 hours. Then the medium was removed and the cells were washed with pbs three times. Primary anti-α-tubulin antibody was added and incubated overnight at 4° C. After additional washing, secondary TRITC-conjugated anti-rabbit antibody was added for 40 min, followed by additional washing and staining with DAPI. Final washing was performed and the cover slides were inverted onto glass slides. Images (40×) were taken using a Nikon confocal microscope with excitation at 557 nm and emission at 576 nm.

HBP-ALL = assay: IC50 in leukemia cell lines; settings: T-ALL
REH = assay: IC50 in leukemia cell lines; settings: Homo sapiens, B-ALL
Nalm-16 = assay: IC50 in leukemia cell lines; settings: NALM16; Nalm-16, B-ALL
MALME-3M = assay: NCI60 screening; settings: Homo sapiens, Melanoma
NCI-BL2009 = assay: IC50 in leukemia cell lines; settings: NCI-BL2009, Normal B-Lymphoblast
EKVX = assay: NCI60 screening; settings: Homo sapiens, Non-Small Cell Lung Cancer
A549(ATCC) = assay: NCI60 screening; settings: Homo sapiens, Non-Small Cell Lung Cancer

With `CCn1cc(/C=C2\Oc3cc(OCC#N)ccc3C2=O)c2cc(OC)ccc21` [Aurone 4a, (Z)-2-((2-((1-Ethyl-5-methoxy-1H-indol-3-yl)methylene)-3-oxo-2,3-dihydrobenzofuran-6-yl)oxy)acetonitrile] the IC50 (Molt-16) was 234 nM, the GI50 (OVCAR-5) was 2520 nM and the “tubulin polymerization in cells” value (HEK193T cells) was “decreased tubulin polymerization”. For the same compound, the GI50 (A498) was 10300 nM, the IC50 [1] was 50 to 300 nM and the GI50 (NCI-H322M) was 1430 nM. The IC50 (Jurkat) was 273 nM, the inhibition at 0.1 µM (PC-3 cells [2]; 100 nM) was 58 ± 11% and the inhibition at 0.3 µM (PC-3 cells [2]; 300 nM) was 93 ± 2.8%. For the same compound, the inhibition at 1 µM (PC-3 cells [2]; 1 μM) was 95 ± 2.5%, the “combination effect with R03306 on proliferation” value [3] was “synergistic effects” and the GI50 (UACC-257) was 67100 nM. The IC50 (DND41) was 210 nM, the GI50 (HCC-2998) was 3440 nM and the inhibition at 0.1 µM (LS174T cells; 100 nM) was 11 ± 11%. For the same compound, the inhibition at 0.3 µM (LS174T cells; 300 nM) was 93 ± 14%, the inhibition at 1 µM (LS174T cells; 1 μM) was 97 ± 0.4% and the inhibition at 10 µM (LS174T cells; 10 μM) was 96 ± 0.8%. For the same compound, the microtubule structures (PC-3 cells [4]) was “inhibited microtubule structures”, the IC50 (HBP-ALL) was 94 nM and the IC50 (REH) was 287 nM. The IC50 (Nalm-16) was 272 nM, the GI50 (MALME-3M) was over 100000 nM and the IC50 (NCI-BL2009) was 1250 nM. For the same compound, the GI50 (EKVX) was 2730 nM and the GI50 (A549(ATCC)) was 5100 nM.
